In ChEMBL document CHEMBL2406949, “Novel chlorinated dibenzofurans isolated from the cellular slime mold, Polysphondylium filamentosum, and their biological activities” (Bioorg Med Chem, 2013):
The source made the active and inactive calls. The rule behind the calls is not given here.

Key:
[1] = Cytotoxicity against Drosophila melanogaster S2 cells assessed as inhibition of beta-galactosidase gene expression; type: cell-based
3T3-L1 = experiment: Growth inhibition of mouse 3T3L1 cells at 10 uM after 3 days by Alamar blue assay; type: cell-based; settings: 3t3-l1, 72 h
S2 [2] = experiment: Inhibition of innate immune response in Drosophila melanogaster S2 cells assessed as reduction in DAP-type peptidoglycans-mediated activation of Dpt-LacZ gene expression at 1 uM after 12 hrs by beta-galactosidase reporter assay; type: functional, cell-based
Dictyostelium discoideum [3] = experiment: Induction of stalk cell differentiation in Dictyostelium discoideum HM44 after 2 days by phase-contrast microscopy; type: functional, organism-based
K562 = experiment: Growth inhibition of human K562 cells at 2 uM after 3 days by Alamar blue assay; type: functional, cell-based
HeLa = experiment: Growth inhibition of human HeLa cells at 5 uM after 3 days by Alamar blue assay; type: functional, cell-based
S2 [4] = experiment: Inhibition of heat shock-mediated activation of hs-Gal4/UAS-lacZ gene expression in Drosophila melanogaster S2 cells after 12 hrs by beta-galactosidase reporter assay; type: functional, cell-based
[5] = Cytotoxicity against Drosophila melanogaster S2 cells assessed as cell viability up to 1 uM; type: cell-based
Dictyostelium discoideum [6] = experiment: Induction of stalk cell differentiation in Dictyostelium discoideum HM44 at […] after 2 days by phase-contrast microscopy; type: functional, organism-based
Dictyostelium discoideum [7] = experiment: Induction of stalk cell differentiation in Dictyostelium discoideum HM44 at 1 nM after 2 days by phase-contrast microscopy; type: functional

In the case of `CCCC(=O)c1c(OC)c(Cl)c2oc3c(Cl)c(OC)c(Cl)c(O)c3c2c1O`, the Activity [1] is reported as “Non-toxic”, the “growth inhibition (GI)” value (3T3-L1) is reported as “Toxic” and the inhibition (S2 [2]) is reported as “Active”. For the same compound, the Activity (Dictyostelium discoideum [3]) was “Dose-dependent effect”, the “growth inhibition (GI)” value (K562) was “Active” and the “growth inhibition (GI)” value (HeLa) was “Active”. For the same compound, the inhibition (S2 [4]) was “Dose-dependent effect” and the Activity [5] was “Non-toxic”.

With `CCCC(=O)c1c(OC)c(Cl)c2oc3c(Cl)c(OC)c(Cl)c(O)c3c2c1OC` the “growth inhibition (GI)” value (3T3-L1) was “Non-toxic”, the inhibition (S2 [2]) was “inactive” and the Activity (Dictyostelium discoideum [6]) was “inactive”. For the same compound, the “growth inhibition (GI)” value (K562) was “inactive” and the “growth inhibition (GI)” value (HeLa) was “inactive”.

With `CCCCCC(=O)c1c(O)c(Cl)c(OC)c(Cl)c1O` the Activity (Dictyostelium discoideum [7]) was >80%.

In the case of `CCCCCC(=O)c1c(OC)c(Cl)c2oc3c(Cl)c(OC)c(Cl)c(O)c3c2c1O`, the Activity [1] is reported as “Non-toxic”, the “growth inhibition (GI)” value (3T3-L1) is reported as “Toxic” and the inhibition (S2 [2]) is reported as “Active”. The Activity (Dictyostelium discoideum [6]) was “inactive”, the “growth inhibition (GI)” value (K562) was “Active” and the “growth inhibition (GI)” value (HeLa) was “Active”. The inhibition (S2 [4]) was “Dose-dependent effect” and the Activity [5] was “Non-toxic”.
